Source: patent US10064839B2, “Methods of treating liver diseases” (Zafgen, Inc., priority 2012, dated 2018)
pEC50: −log10 of the molar value. Converted amounts (≈) assume the structure as drawn.

Key:
[1] = i.v. and p.o. exposure study, dog; type: in vivo; details: plasma
Description: (§1) Mouse, rat and dog studies were conducted to assess i.v. and p.o. (oral) exposure.

MetAP1 = MetAP1 (Homo sapiens, UniProt P53582); experiment: MetAP1 IC50; type: biochemical; details: second value of the cell; read-out: MetAP2/MetAP1 IC50 (nM): MetAP1
[2] = Plasma protein binding, human; type: in vitro ADME; details: read-out: Plasma protein binding (h/r/m, %): h (converted)
HT1080 = HT1080 EC50; type: cell-based; details: Homo sapiens, HT-1080; second of two values 28/8, key not given
CYP3A4 = CYP3A4 (Homo sapiens, UniProt P08684); experiment: CYP3A4 inhibition with pre-incubation; type: in vitro ADME; details: footnote to CYP IC50, HLM
Solubility = type: physicochemical; details: aqueous buffer; at pH 7.4
[3] = i.v. and p.o. exposure study, mouse; type: in vivo
Description: as §1

[4] = Plasma protein binding, mouse; type: in vitro ADME; details: read-out: Plasma protein binding (h/r/m, %): m
[5] = system: Cell cycle (G1 attenuation); experiment: Cell cycle (G1 attenuation); type: cell-based
CYP (isoform not given) = experiment: CYP IC50, HLM; type: in vitro ADME; details: human, human liver microsomes
[6] = system: Diet induced obese (DIO) C57BL6 mice; experiment: Diet induced obese mouse study of compound A; type: in vivo
Description: Diet induced obese (DIO) C57BL6 mice were provided with varying doses of compound A and fumagillin (fum). Tissue biomarkers in peri-renal fat, mesenteric fat and the liver were measured.
(FIG. 3). Decrease in plasma insulin in mice, after once or twice a day administration of compound A vs. vehicle is also observed (FIG. 4).

Sequence of CYP3A4 (P08684 whole entry): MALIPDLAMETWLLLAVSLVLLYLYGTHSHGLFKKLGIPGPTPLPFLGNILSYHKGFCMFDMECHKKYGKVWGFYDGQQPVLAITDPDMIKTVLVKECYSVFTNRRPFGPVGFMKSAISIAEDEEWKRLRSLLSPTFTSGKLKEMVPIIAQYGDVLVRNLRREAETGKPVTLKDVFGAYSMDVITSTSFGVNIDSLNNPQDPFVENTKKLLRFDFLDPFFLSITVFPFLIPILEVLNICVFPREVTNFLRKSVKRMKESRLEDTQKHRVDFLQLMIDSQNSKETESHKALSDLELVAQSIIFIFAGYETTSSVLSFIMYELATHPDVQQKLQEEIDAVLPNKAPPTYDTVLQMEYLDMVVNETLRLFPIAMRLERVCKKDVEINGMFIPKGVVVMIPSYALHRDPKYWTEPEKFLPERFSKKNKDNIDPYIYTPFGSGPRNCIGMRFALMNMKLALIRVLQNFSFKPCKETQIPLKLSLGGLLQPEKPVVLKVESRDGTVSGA

CCN(CC)C/C=C\c1cc(F)ccc1S(=O)(=O)Nc1ccc2c(c1C(=O)O)OC[C@@H]1C[C@H]21 (single isomer, unassigned) [Example 12]
clearance ([1]; iv): 14 mL/min/kg
half-life ([1]; iv, read-out: Plasma T1/2 (converted)): 216 min
Vd ([1]; iv, read-out: Vss): 1.3 L/kg
AUC ([1]; po): 711 ng·h/mL
bioavailability ([1]; po): 20%
IC50 (MetAP1): 50000 nM
fraction unbound [2]: 0.228
pEC50 (HT1080): 8.10
CYP3A4 signal with pre-incubation (CYP3A4): *CYP3A4 signal observed with pre-incubation
solubility (Solubility): ~100 µg/mL (≈ 211 µM)
Kp ([3]; liver/plasma, po, read-out: liver/plasma ratio): 38
clearance ([3]; plasma, iv): 126 mL/min/kg
half-life ([3]; plasma, iv, read-out: Plasma T1/2 (converted)): 54 min
Vd ([3]; plasma, iv, read-out: Vss): 3.1 L/kg
AUC ([3]; plasma, po): 497 ng·h/mL
bioavailability ([3]; plasma, po): 53%
fraction unbound [4]: > 0.3
Cell cycle (G1 attenuation, nM) [5]: 3 nM
IC50 (CYP (isoform not given)): > 10 µM
Expression of genes implicated in pathogenesis of fatty liver and fibrosis (liver mRNA microarray) ([6]; 3 mg/kg/bid×10 days, DIO obese mice, FIG. 6): favorably regulated
Tissue biomarkers in peri-renal fat, mesenteric fat and the liver ([6]; DIO C57BL6 mice, varying doses, FIG. 1): primarily targets the liver
Liver weight ([6]; FIG. 5): reduction
Mesenteric adipose tissue weight ([6]; FIG. 5): reduction
Change in bodyweight after 10 days ([6]; obese mice, increasing doses over 10 days, vs vehicle, FIG. 2): marked decrease in body weight
Blood cholesterol ([6]; obese mice, vs vehicle, FIG. 3): marked lowering
Blood glucose ([6]; obese mice, vs vehicle, FIG. 3): marked lowering
Plasma insulin ([6]; once or twice a day administration vs vehicle, FIG. 4): Decrease
